Source: ChEMBL document CHEMBL5096232, “Exploring the NCS-382 Scaffold for CaMKIIα Modulation: Synthesis, Biochemical Pharmacology, and Biophysical Characterization of Ph-HTBA as a Novel High-Affinity Brain-Penetrant Stabilizer of the CaMKIIα Hub Domain” (J Med Chem, 2022)
Calls of active or inactive are those of the source. The calls are words filed in the database; no cut-off is given here.

Columns and labels:
[1] = molecular target: T1, Calcium/calmodulin-dependent protein kinase type II subunit alpha (Rattus norvegicus, UniProt P11275); experiment: Displacement of [3H]NCS-382 from CaMK2alpha in rat brain cortical membrane homogenates measured after 1 hr by TopCount scintillation counting method; assay type: cell membranes, Cortex
[2] = molecular target: T2, Calcium/calmodulin-dependent protein kinase type II subunit alpha (Homo sapiens, UniProt Q9UQM7); experiment: Binding affinity to recombinant human CaMK2alpha 6x hub domain (345 to 475 residues) expressed in Escherichia coli BL21 DE3 assessed as thermal stability by measuring change in melting temperature at 5 to 1280 uM by SYPRO orange dye based differential scanning fluorimetry; conditions: dose 5-1280 µM
[3] = molecular target: T2, Calcium/calmodulin-dependent protein kinase type II subunit alpha; experiment: Binding affinity to recombinant human CaMK2alpha 6x hub domain (345 to 475 residues) expressed in Escherichia coli BL21 DE3 assessed as dissociation constant by surface plasmon resonance assay
[4] = molecular target: T1, Calcium/calmodulin-dependent protein kinase type II subunit alpha; experiment: Displacement of [3H]HOCPCA from native CaMK2alpha in rat brain cortical membrane homogenates measured after 1 hr by TopCount scintillation counting method; assay type: cell membranes, Cortex
[5] = molecular target: T2, Calcium/calmodulin-dependent protein kinase type II subunit alpha; conditions: filed as modulator
Description: Binding affinity to recombinant human CaMK2alpha 6x hub domain (345 to 475 residues) expressed in Escherichia coli BL21 DE3 assessed as dissociation rate constant by surface plasmon resonance assay

[6] = molecular target: T1, Calcium/calmodulin-dependent protein kinase type II subunit alpha; experiment: Displacement of [3H]HOCPCA from recombinant rat CaMK2alpha expressed in HEK293T cells measured after 1 hr by liquid scintillation counting method; assay type: cell-based
[7] = Metabolic stability in mouse liver microsomes assessed as intrinsic clearance per mg of protein at 0.5 uM incubated in presence of NADPH regenerating system and measured for 45 mins by LC-MS/MS analysis; assay type: ADME, Microsome; conditions: read-out: CLH
BCRP [8] = experiment: Apparent permeability across basolateral to apical side in MDCK-II-BCRP cells at 3 uM measured after 60 to 90 mins by LC-MS/MS analysis; assay type: ADME, cell-based, Canis lupus familiaris; conditions: dog, time 60-90 min
[9] = Drug concentration in C57BL/6J mouse plasma at 10 mg/kg, po by HPLC-MS/MS analysis; assay type: ADME, organism-based; conditions: in vivo
[10] = Ratio of drug concentration in brain to plasma in C57BL/6J mouse at 10 mg/kg, po measured at 30 mins by HPLC-MS/MS analysis; assay type: ADME, organism-based; conditions: read-out: BPR
MDR1 (P-gp) [11] = experiment: Apparent permeability across apical to basolateral side in MDCKII-MDR1 cells at 3 uM preincubated with P-gp/BCRP transporter dual inhibitor, elacridar for 15 to 30 mins followed by compound addition and measured after 60 to 90 mins by LC-MS/MS analysis; assay type: ADME, cell-based, Canis lupus familiaris, MDCK-MDR1; conditions: dog, time 60-90 min
MDR1 (P-gp) [12] = experiment: Apparent permeability across basolateral to apical side in MDCKII-MDR1 cells at 3 uM preincubated with P-gp/BCRP transporter dual inhibitor, elacridar for 15 to 30 mins followed by compound addition and measured after 60 to 90 mins by LC-MS/MS analysis; assay type: ADME, cell-based, Canis lupus familiaris, MDCK-MDR1; conditions: dog, time 60-90 min
BCRP [13] = experiment: Apparent permeability across basolateral to apical side in MDCK-II-BCRP cells at 3 uM preincubated with BCRP inhibitor, Ko 143 for 15 to 30 mins followed by compound addition and measured after 60 to 90 mins by LC-MS/MS analysis; assay type: ADME, cell-based, Canis lupus familiaris; conditions: dog, with Ko 143 (BCRP inhibitor; concentration not stated), time 60-90 min
MDR1 (P-gp) [14] = experiment: Apparent permeability across basolateral to apical side in MDCKII-MDR1 cells at 3 uM measured after 60 to 90 mins by LC-MS/MS analysis; assay type: ADME, cell-based, Canis lupus familiaris; conditions: dog, MDCK-MDR1, time 60-90 min
[15] = Half life in ip dosed mouse; assay type: ADME, organism-based; conditions: in vivo
BCRP [16] = experiment: Apparent permeability across apical to basolateral side in MDCK-II-BCRP cells at 3 uM preincubated with BCRP inhibitor, Ko 143 for 15 to 30 mins followed by compound addition and measured after 60 to 90 mins by LC-MS/MS analysis; assay type: ADME, cell-based, Canis lupus familiaris; conditions: dog, with Ko 143 (BCRP inhibitor; concentration not stated), time 60-90 min
[17] = Metabolic stability in human hepatocytes assessed as intrinsic clearance per 10^6 cells at 0.5 uM incubated in presence of NADPH regenerating system and measured for 120 mins by LC-MS/MS analysis; assay type: ADME, cell-based, Hepatocyte; conditions: read-out: CLH
BCRP [18] = experiment: Apparent permeability across apical to basolateral side in MDCK-II-BCRP cells at 3 uM measured after 60 to 90 mins by LC-MS/MS analysis; assay type: ADME, cell-based, Canis lupus familiaris; conditions: dog, time 60-90 min
MDR1 (P-gp) [19] = experiment: Apparent permeability across apical to basolateral side in MDCKII-MDR1 cells at 3 uM measured after 60 to 90 mins by LC-MS/MS analysis; assay type: ADME, cell-based, Canis lupus familiaris; conditions: dog, MDCK-MDR1, time 60-90 min
[20] = Unbound brain-to-plasma partition coefficient in C57BL/6J mouse at 10 mg/kg, po measured at 30 mins by HPLC-MS/MS analysis; assay type: ADME, organism-based; conditions: read-out: K(p,uu,brain)
[21] = Drug concentration in C57BL/6J mouse brain at 10 mg/kg, po by HPLC-MS/MS analysis; assay type: ADME, organism-based; conditions: in vivo
[22] = Metabolic stability in mouse hepatocytes assessed as intrinsic clearance per 10^6 cells at 0.5 uM incubated in presence of NADPH regenerating system and measured for 120 mins by LC-MS/MS analysis; assay type: ADME, cell-based, Hepatocyte; conditions: read-out: CLH
[23] = Metabolic stability in human liver microsomes assessed as intrinsic clearance per mg of protein at 0.5 uM incubated in presence of NADPH regenerating system and measured for 45 mins by LC-MS/MS analysis; assay type: ADME, Microsome; conditions: read-out: CLH
[24] = molecular target: T2, Calcium/calmodulin-dependent protein kinase type II subunit alpha; experiment: Binding affinity to recombinant human CaMK2alpha 6x hub domain (345 to 475 residues) Trp403 residue assessed as quenching of intrinsic tryptophan fluorescence at 9.8 to 29 uM by Trp flip assay; conditions: filed as modulator, dose 9.8-29 µM

T1 sequence (P11275 whole entry, the tested form may be a part): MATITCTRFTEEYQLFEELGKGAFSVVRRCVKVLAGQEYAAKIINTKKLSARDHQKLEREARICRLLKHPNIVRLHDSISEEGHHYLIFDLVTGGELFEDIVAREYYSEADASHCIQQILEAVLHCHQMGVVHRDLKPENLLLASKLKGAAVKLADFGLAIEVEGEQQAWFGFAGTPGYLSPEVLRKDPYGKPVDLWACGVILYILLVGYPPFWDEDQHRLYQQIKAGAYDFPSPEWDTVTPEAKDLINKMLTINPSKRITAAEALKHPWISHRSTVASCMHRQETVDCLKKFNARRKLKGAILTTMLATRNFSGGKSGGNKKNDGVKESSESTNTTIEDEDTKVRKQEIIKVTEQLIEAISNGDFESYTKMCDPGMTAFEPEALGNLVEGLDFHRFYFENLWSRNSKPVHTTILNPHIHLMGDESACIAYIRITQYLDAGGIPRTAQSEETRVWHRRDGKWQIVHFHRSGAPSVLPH
T2 sequence (Q9UQM7 whole entry, the tested form may be a part): as the sequence (P11275 whole entry, the tested form may be a part) above, with N324S counted along it

Work on `O=C(O)/C=C1\CCCc2cc(/C=C/c3ccccc3)ccc2C1O` (stereo unspecified) yielded a Ki [1] of 40 nM.
For `O=C(O)/C=C1\CCCc2ccccc2C1O` (stereo unspecified), the ΔTm [2] was 16.7 °C, the Kd [3] was 8900 nM and the Ki [4] was 590 nM. It also gave a Ki [1] of 340 nM, a Kdiss [5] of 0.75 s⁻¹ and a Ki [6] of 3900 nM.
`O=C(O)/C=C1\CCCc2c(CCc3ccccc3)cccc2C1O` (stereo unspecified) gave a Ki [1] of 56 nM.
In the case of `O=C(O)/C=C1\CCCc2cc(F)ccc2C1O` (stereo unspecified), the Ki [1] is reported as 110 nM.
For `O=C(O)/C=C1\CCCc2c(Br)cccc2C1O` (stereo unspecified), the Ki [1] was 230 nM.
For `O=C(O)/C=C1\CCCc2ccc(-c3ccccc3)cc2C1O` (stereo unspecified), the Ki [1] was 14000 nM.
`Cc1ccc2c(c1)CCC/C(=C\C(=O)O)C2O` (stereo unspecified) showed a Ki [1] of 320 nM.
`O=C(O)C1=CC(O)CC1` (stereo unspecified) gave a Ki [4] of 130 nM, a Ki [1] of 160 nM and a Ki [6] of 1800 nM.
With `O=C(O)/C=C1\CCCc2c(/C=C/c3c(Cl)cccc3Cl)cccc2C1O` (stereo unspecified) the Ki [1] was 110 nM.
With `O=C([O-])/C=C1\CCCc2cc(-c3ccccc3)ccc2C1O.[Na+]` (stereo unspecified) the microsomal CLint at 0.5 µM [7] was over 9.9 µL/min/mg, the Papp B→A at 3 µM (BCRP [8]) was 19.4 ×10⁻⁶ cm/s and the Cp [9] was 1450 ng/mL. It also gave a Kp at 0.5 h [10] of 0.1, a Papp A→B at 3 µM (MDR1 (P-gp) [11]) of 12.9 ×10⁻⁶ cm/s and a Papp B→A at 3 µM (MDR1 (P-gp) [12]) of 15 ×10⁻⁶ cm/s. For the same molecule, the Papp B→A at 3 µM (BCRP [13]) was 16.5 ×10⁻⁶ cm/s, the Papp B→A at 3 µM (MDR1 (P-gp) [14]) was 16.3 ×10⁻⁶ cm/s and the half-life [15] was 18 min. For the same molecule, the Papp A→B at 3 µM (BCRP [16]) was 15.9 ×10⁻⁶ cm/s, the hepatocyte CLint at 0.5 µM [17] was 8.6 µL/min/1e6 cells and the Papp A→B at 3 µM (BCRP [18]) was 15.8 ×10⁻⁶ cm/s. For the same molecule, the Papp A→B at 3 µM (MDR1 (P-gp) [19]) was 13 ×10⁻⁶ cm/s, the Kp uu at 0.5 h [20] was 0.85 and the Ct [21] was 99.1 ng/mL. The hepatocyte CLint at 0.5 µM [22] was 65 µL/min/1e6 cells and the microsomal CLint at 0.5 µM [23] was over 9.9 µL/min/mg.
With `O=C(O)/C=C1\CCCc2c(/C=C/c3ccccc3)cccc2C1O` (stereo unspecified) the Activity [24] was “Active”, the Ki [4] was 81 nM and the Ki [1] was 14000 nM.
